System: Endogenous Huntingtin Protein
Assay: Endogenous Huntingtin Protein Assay (ELISA-based MSD electrochemiluminescence)
Type: cell-based
Settings: Table 1
Procedure, shortened: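 Sandwich MSD electrochemiluminescence immunoassay. Capture used MW1 (expanded polyglutamine) or MAB2166 antibody coated at 1 μg/mL overnight at 4 °C. Samples were bound overnight at 4 °C, then a rabbit monoclonal detection antibody and SULFO-TAG anti-rabbit, each at 0.25 μg/mL, were applied for 1 h at room temperature.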

| SMILES | IC50 |
| --- | --- |
| CN(c1nc2nnc(-c3cc(F)c(-c4cn[nH]c4)cc3F)cc2s1)C1CCNCC1 [Compound 328, 3-[2,5-difluoro-4-(1H-pyrazol-4-yl)phenyl]-N-methyl-N-(piperidin-4-yl)[1,3]thiazolo[4,5-c]pyridazin-6-amine] | 100 to 500 nM |
| Cc1cn2cc(-c3cc4sc(N[C@@H]5C[C@H]6CC[C@@H](C5)N6C)nc4cn3)cc(F)c2n1 [Compound 247, 6-(8-fluoro-2-methylimidazo[1,2-a]pyridin-6-yl)-N-[(3-exo)-8-methyl-8-azabicyclo[3.2.1]oct-3-yl][1,3]thiazolo[4,5-c]pyridin-2-amine] | 100 to 500 nM |
| CN(c1nc2cnc(-c3cc(C#N)c4nn(C)cc4c3)nc2s1)C1CCNCC1 [Compound 193, 2-methyl-5-{2-[methyl(piperidin-4-yl)amino][1,3]thiazolo[5,4-d]pyrimidin-5-yl}-2H-indazole-7-carbonitrile] | ≤ 100 nM |
| Cc1cn2nc(-c3cc(F)c4nc(N(C)[C@H]5CCN[C@@H](C)C5)sc4c3)ccc2n1 [Compound 258, 4-fluoro-N-methyl-6-(2-methylimidazo[1,2-b]pyridazin-6-yl)-N-[(2S,4S)-2-methylpiperidin-4-yl]-1,3-benzothiazol-2-amine] | ≤ 100 nM |
| Cn1cc2cc(-c3nc4ncc(C5=CCNCC5)cc4s3)ccc2n1 [Compound 19, 2-(2-methyl-2H-indazol-5-yl)-6-(1,2,3,6-tetrahydropyridin-4-yl)[1,3]thiazolo[4,5-b]pyridine] | 100 to 500 nM |
| Cc1cc(-c2cnc3nc(N(C)C4CC(C)(C)NC(C)(C)C4)sc3n2)cc2cn(C)nc12 [Compound 131, 6-(2,7-dimethyl-2H-indazol-5-yl)-N-methyl-N-(2,2,6,6-tetramethylpiperidin-4-yl)[1,3]thiazolo[4,5-b]pyrazin-2-amine] | ≤ 100 nM |
| Cc1cn2cc(-c3cc4sc(N(C)C5CC6CCCC(C5)N6)nc4cn3)cc(C)c2n1 (stereo not shown) [Compound 261, N-(9-azabicyclo[3.3.1]non-3-yl)-6-(2,8-dimethylimidazo[1,2-a]pyridin-6-yl)-N-methyl[1,3]thiazolo[4,5-c]pyridin-2-amine] | ≤ 100 nM |
| Cn1cc2cc(-c3cc(C#N)c4nc(C5=CCNCC5)sc4c3)cc(C#N)c2n1 [Compound 172, 6-(7-cyano-2-methyl-2H-indazol-5-yl)-2-(1,2,3,6-tetrahydropyridin-4-yl)-1,3-benzothiazole-4-carbonitrile] | 1000 to 3000 nM |
| CN(c1nc2nnc(-c3ccc(-c4cn[nH]c4)cc3O)cc2s1)[C@H]1CCNC[C@H]1F [Compound 358, 2-(6-{[(3R,4S)-3-fluoropiperidin-4-yl](methyl)amino}[1,3]thiazolo[4,5-c]pyridazin-3-yl)-5-(1H-pyrazol-4-yl)phenol] | 500 to 1000 nM |
| Cn1cc2cc(-c3cc(F)c4nc(C5=CCNCC5)sc4c3)cc(C#N)c2n1 [Compound 102, 5-[4-fluoro-2-(1,2,3,6-tetrahydropyridin-4-yl)-1,3-benzothiazol-6-yl]-2-methyl-2H-indazole-7-carbonitrile] | ≤ 100 nM |
| Cc1cn2cc(-c3cc4sc(N(C)C5CC(C)(C)NC(C)(C)C5)nc4cn3)ccc2n1 [Compound 87, N-methyl-6-(2-methylimidazo[1,2-a]pyridin-6-yl)-N-(2,2,6,6-tetramethylpiperidin-4-yl)[1,3]thiazolo[4,5-c]pyridin-2-amine] | ≤ 100 nM |
| Cc1cc(-c2cc(F)c3nc(N(C)C4CC(C)(C)NC(C)(C)C4)sc3c2)cc2cn(C)nc12 [Compound 24, 6-(2,7-dimethyl-2H-indazol-5-yl)-4-fluoro-N-methyl-N-(2,2,6,6-tetramethylpiperidin-4-yl)-1,3-benzothiazol-2-amine] | ≤ 100 nM |
| CN(c1nc2cnc(-c3cc(F)c4nn(C)cc4c3)cc2s1)C1CCNCC1 [Compound 216, 6-(7-fluoro-2-methyl-2H-indazol-5-yl)-N-methyl-N-(piperidin-4-yl)[1,3]thiazolo[4,5-c]pyridin-2-amine] | 100 to 500 nM |
| CN(c1nc2nnc(-c3ccc(-c4cn[nH]c4)cc3O)cc2s1)[C@H]1CCN[C@H](CO)C1 [Compound 371, 2-(6-{[(2S,4S)-2-(hydroxymethyl)piperidin-4-yl](methyl)amino}[1,3]thiazolo[4,5-c]pyridazin-3-yl)-5-(1H-pyrazol-4-yl)phenol] | ≤ 100 nM |
| Cc1cn2cc(-c3cc4sc(NC5CC(C)(C)NC(C)(C)C5)nc4cn3)cc(F)c2n1 [Compound 234, 6-(8-fluoro-2-methylimidazo[1,2-a]pyridin-6-yl)-N-(2,2,6,6-tetramethylpiperidin-4-yl)[1,3]thiazolo[4,5-c]pyridin-2-amine] | ≤ 100 nM |
| CN(c1nc2cnc(-c3cc(C#N)c4nn(C)cc4c3)cc2s1)C1CCNCC1 [Compound 214, 2-methyl-5-{2-[methyl(piperidin-4-yl)amino][1,3]thiazolo[4,5-c]pyridin-6-yl}-2H-indazole-7-carbonitrile] | ≤ 100 nM |
| Cn1cc2cc(-c3ccc4nc(C5CCNC(C)(C)C5)sc4c3)ccc2n1 (stereo not shown) [Compound 115, 2-(2,2-dimethylpiperidin-4-yl)-6-(2-methyl-2H-indazol-5-yl)-1,3-benzothiazole] | 500 to 1000 nM |

| SMILES | IC50 |
| --- | --- |
| Oc1cc(-c2cn[nH]c2)ccc1-c1cc2sc(N3C[C@@H]4CCNC[C@@H]43)nc2nn1 [Compound 389, 2-{6-[(1R,6S)-3,8-diazabicyclo[4.2.0]octan-8-yl][1,3]thiazolo[4,5-c]pyridazin-3-yl}-5-(1H-pyrazol-4-yl)phenol] | ≤ 100 nM |
| CN[C@H]1C[C@@H](N(C)c2nc3nnc(-c4ccc(-c5cn[nH]c5)cc4O)cc3s2)C1 [Compound 361, 2-(6-{methyl[(1s,3s)-3-(methylamino)cyclobutyl]amino}[1,3]thiazolo[4,5-c]pyridazin-3-yl)-5-(1H-pyrazol-4-yl)phenol] | 100 to 500 nM |
| Cc1cn2cc(-c3ccc4nc(N(C)C5CC(C)(C)NC(C)(C)C5)sc4c3)cc(F)c2n1 [Compound 111, 6-(8-fluoro-2-methylimidazo[1,2-a]pyridin-6-yl)-N-methyl-N-(2,2,6,6-tetramethylpiperidin-4-yl)-1,3-benzothiazol-2-amine] | ≤ 100 nM |
| Oc1cc(-c2cn[nH]c2)ccc1-c1cc2sc(N3C[C@H]4CCNC[C@H]43)nc2nn1 [Compound 386, 2-{6-[(1S,6R)-3,8-diazabicyclo[4.2.0]octan-8-yl][1,3]thiazolo[4,5-c]pyridazin-3-yl}-5-(1H-pyrazol-4-yl)phenol] | ≤ 100 nM |
| Cc1cn2cc(-c3cc4sc(OC5CCNCC5)nc4cn3)cc(C#N)c2n1 [Compound 313, 2-methyl-6-{2-[(piperidin-4-yl)oxy][1,3]thiazolo[4,5-c]pyridin-6-yl}imidazo[1,2-a]pyridine-8-carbonitrile] | 100 to 500 nM |
| Cc1cn2nc(-c3cc4sc(N(C)C5CC(C)(C)NC(C)(C)C5)nc4cn3)cc(C)c2n1 [Compound 90, 6-(2,8-dimethylimidazo[1,2-b]pyridazin-6-yl)-N-methyl-N-(2,2,6,6-tetramethylpiperidin-4-yl)[1,3]thiazolo[4,5-c]pyridin-2-amine] | 100 to 500 nM |
| CC1CC(N(C)c2nc3cnc(-c4cc(C#N)c5nn(C)cc5c4)cc3s2)CCN1C (stereo not shown) [Compound 377, 5-{2-[(1,2-dimethylpiperidin-4-yl)(methyl)amino][1,3]thiazolo[4,5-c]pyridin-6-yl}-2-methyl-2H-indazole-7-carbonitrile] | 100 to 500 nM |
| CN1CCC[C@H](N(C)c2nc3nnc(-c4ccc(-c5cn[nH]c5)cc4O)cc3s2)C1 [Compound 352, 2-(6-{methyl[(3S)-1-methylpiperidin-3-yl]amino}[1,3]thiazolo[4,5-c]pyridazin-3-yl)-5-(1H-pyrazol-4-yl)phenol] | ≤ 100 nM |
| Cc1nn2cc(-c3cc4sc(N(C)C5CC(C)(C)NC(C)(C)C5)nc4cn3)nc2s1 [Compound 308, N-methyl-6-(2-methylimidazo[2,1-b][1,3,4]thiadiazol-6-yl)-N-(2,2,6,6-tetramethylpiperidin-4-yl)[1,3]thiazolo[4,5-c]pyridin-2-amine] | 1000 to 3000 nM |
| Cc1cn2nc(-c3cc(F)c4nc(C5CCNCC5)sc4c3)ccc2n1 [Compound 45, 6-[4-fluoro-2-(piperidin-4-yl)-1,3-benzothiazol-6-yl]-2-methylimidazo[1,2-b]pyridazine] | ≤ 100 nM |
| Cc1cn2cc(-c3cnc4nc(OC5CC(C)(C)NC(C)(C)C5)sc4n3)cc(C#N)c2n1 [Compound 181, 2-methyl-6-{2-[(2,2,6,6-tetramethylpiperidin-4-yl)oxy][1,3]thiazolo[4,5-b]pyrazin-6-yl}imidazo[1,2-a]pyridine-8-carbonitrile] | 100 to 500 nM |
| Cc1cn2cc(-c3cc4sc(N(C)C5CC(C)(C)NC(C)(C)C5)nc4cn3)cc2c(C)n1 [Compound 297, 6-(1,3-dimethylpyrrolo[1,2-a]pyrazin-7-yl)-N-methyl-N-(2,2,6,6-tetramethylpiperidin-4-yl)[1,3]thiazolo[4,5-c]pyridin-2-amine] | ≤ 100 nM |
| Cc1cn2cc(-c3cc(F)c4nc(C5CCNCC5)sc4c3)nc2c(C)n1 [Compound 229, 2-[4-fluoro-2-(piperidin-4-yl)-1,3-benzothiazol-6-yl]-6,8-dimethylimidazo[1,2-a]pyrazine] | ≤ 100 nM |
| COc1cc(-c2cc(C)c3nn(C)cc3c2)cc2sc(C3=CCNCC3)nc12 [Compound 98, 6-(2,7-dimethyl-2H-indazol-5-yl)-4-methoxy-2-(1,2,3,6-tetrahydropyridin-4-yl)-1,3-benzothiazole] | 100 to 500 nM |
| Oc1cc(-c2cn[nH]c2)ccc1-c1cc2sc(N3CC[C@H]4CCNC[C@H]43)nc2nn1 [Compound 362, 2-{6-[(3aR,7aS)-octahydro-1H-pyrrolo[2,3-c]pyridin-1-yl][1,3]thiazolo[4,5-c]pyridazin-3-yl}-5-(1H-pyrazol-4-yl)phenol] | ≤ 100 nM |
| CN(c1nc2nnc(-c3ccc(-c4cn[nH]c4)cc3O)cc2s1)C1CCNCC1(C)C (stereo not shown) [Compound 355, 2-{6-[(3,3-dimethylpiperidin-4-yl)(methyl)amino][1,3]thiazolo[4,5-c]pyridazin-3-yl}-5-(1H-pyrazol-4-yl)phenol] | ≤ 100 nM |
| Cc1cc(-c2ncc3nc(C4CCNCC4)sc3n2)cc2cn(C)nc12 [Compound 110, 5-(2,7-dimethyl-2H-indazol-5-yl)-2-(piperidin-4-yl)[1,3]thiazolo[5,4-d]pyrimidine] | 100 to 500 nM |

From patent US12139499B2, “Heteroaryl compounds for treating Huntington's disease” (PTC THERAPEUTICS, INC., priority 2018, dated 2024)
